Literature values, collected in patent US6558710B1, “Topical zinc compositions and methods of use” (priority 1999, dated 2003).
Read-outs that look alike come from different tables or passages of the source.

Columns and labels:
HIV = settings: 1-1.5% zinc acetate, 2 hours, in vitro (U.S. Pat. No. 5,545,673)
[1] = solutions of 0.2-1%, applied circumorally

In the case of [O]=[Zn] [zinc oxide], the dermal irritancy (20% suspension) is listed as “not overtly irritant” and the “stimulation of epidermal healing” value (in comparison to the more irritating and more water-soluble zinc salts) is listed as “only marginally effective”.
For CC(=O)[O-].CC(=O)[O-].[Zn+2] [zinc acetate], the dermal irritancy (20% aqueous) is listed as “slightly less irritant” and the HIV infectivity (HIV) is listed as “reduced or completely eliminated”.
For zinc pyrithione, the dermal irritancy (20% suspension) is listed as “not overtly irritant”.
In the case of [Cl-].[Cl-].[Zn+2] [zinc chloride], the dermal irritancy (1% aqueous) is given as “severely irritant”.
For O=S(=O)([O-])[O-].[Zn+2] [zinc sulfate], the dermal irritancy (1% aqueous) is given as “not overtly irritant” and the “irritation and side effects” value [1] is given as “severe irritation, unpleasant dryness and stimulate the emetic reflex”.
